According to ChEMBL document CHEMBL1909046, “DrugMatrix in vitro pharmacology data”:

Experiments:
[1] = biological target: T1, Vasoactive intestinal polypeptide receptor 1 (Homo sapiens, UniProt P32241); assay type: cell membranes, Membrane; conditions: ht-29; note: in other assays of this panel Not Active means under 50% inhibition at 10 µM
T1 sequence (P32241 whole entry): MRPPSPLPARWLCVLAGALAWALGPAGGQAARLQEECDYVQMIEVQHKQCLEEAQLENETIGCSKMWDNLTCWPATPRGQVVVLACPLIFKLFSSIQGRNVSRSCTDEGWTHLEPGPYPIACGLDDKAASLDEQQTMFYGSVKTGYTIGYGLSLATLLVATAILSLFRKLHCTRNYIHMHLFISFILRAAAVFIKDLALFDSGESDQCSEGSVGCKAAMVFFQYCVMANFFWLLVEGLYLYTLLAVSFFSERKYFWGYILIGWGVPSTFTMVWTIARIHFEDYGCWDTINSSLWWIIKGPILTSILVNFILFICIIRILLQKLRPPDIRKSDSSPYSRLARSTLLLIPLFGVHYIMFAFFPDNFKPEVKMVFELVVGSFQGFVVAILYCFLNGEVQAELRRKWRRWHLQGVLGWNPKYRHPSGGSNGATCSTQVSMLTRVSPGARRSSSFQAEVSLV

[2] = DRUGMATRIX: ATPase, Na+/K+ enzyme inhibition (substrate: ATP); assay type: tissue-based, Sus scrofa, Heart; conditions: Not Active = under 50% inhibition at 10 µM
[3] = biological target: Nitric oxide synthase 1 (Rattus norvegicus, UniProt P29476); assay type: tissue-based, Cerebellum; note: in other assays of this panel Not Active means under 50% inhibition at 10 µM
[4] = biological target: T2, Receptor-type tyrosine-protein phosphatase C (Homo sapiens, UniProt P08575); parameters: species or system Escherichia coli;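 note: inhibition of CD45 enzyme activity measured using DiFMUP as substrate; in other assays of this panel Not Active means under 50% inhibition at 10 µM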
T2 sequence (P08575 whole entry): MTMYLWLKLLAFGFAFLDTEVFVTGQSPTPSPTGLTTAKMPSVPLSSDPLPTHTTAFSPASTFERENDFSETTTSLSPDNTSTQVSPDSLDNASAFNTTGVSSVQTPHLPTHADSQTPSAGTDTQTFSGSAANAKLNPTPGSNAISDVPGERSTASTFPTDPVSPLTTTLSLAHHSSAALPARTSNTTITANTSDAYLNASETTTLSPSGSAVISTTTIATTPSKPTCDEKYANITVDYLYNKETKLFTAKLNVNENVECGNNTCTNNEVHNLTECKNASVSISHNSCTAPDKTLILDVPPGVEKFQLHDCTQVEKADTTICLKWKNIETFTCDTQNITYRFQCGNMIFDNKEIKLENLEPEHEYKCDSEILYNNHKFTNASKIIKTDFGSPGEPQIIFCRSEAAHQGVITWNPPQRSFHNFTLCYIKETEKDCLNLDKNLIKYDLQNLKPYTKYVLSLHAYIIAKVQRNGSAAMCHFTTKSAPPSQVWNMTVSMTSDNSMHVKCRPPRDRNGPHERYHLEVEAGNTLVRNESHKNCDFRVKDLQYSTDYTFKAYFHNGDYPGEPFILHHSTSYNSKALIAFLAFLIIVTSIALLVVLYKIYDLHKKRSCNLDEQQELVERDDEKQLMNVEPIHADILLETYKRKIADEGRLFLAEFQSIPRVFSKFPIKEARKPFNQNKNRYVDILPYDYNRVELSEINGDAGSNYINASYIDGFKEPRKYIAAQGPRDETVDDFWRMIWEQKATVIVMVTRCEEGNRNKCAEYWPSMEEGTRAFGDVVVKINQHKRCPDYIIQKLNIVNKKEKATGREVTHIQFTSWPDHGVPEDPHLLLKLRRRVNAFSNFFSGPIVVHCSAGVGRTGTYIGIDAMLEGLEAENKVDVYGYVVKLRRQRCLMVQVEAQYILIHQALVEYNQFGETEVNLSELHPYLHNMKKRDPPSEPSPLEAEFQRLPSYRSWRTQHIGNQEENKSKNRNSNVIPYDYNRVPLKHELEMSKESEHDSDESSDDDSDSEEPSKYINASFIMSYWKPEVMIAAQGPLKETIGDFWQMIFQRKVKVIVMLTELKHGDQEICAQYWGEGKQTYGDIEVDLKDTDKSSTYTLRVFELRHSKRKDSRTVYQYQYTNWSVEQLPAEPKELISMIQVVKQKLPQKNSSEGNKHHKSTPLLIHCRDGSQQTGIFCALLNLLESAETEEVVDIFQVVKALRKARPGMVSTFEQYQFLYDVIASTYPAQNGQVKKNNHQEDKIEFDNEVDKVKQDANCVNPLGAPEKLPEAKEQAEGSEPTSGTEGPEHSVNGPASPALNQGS

[5] = biological target: T3, Cytochrome P450 1A2 (Homo sapiens, UniProt P05177); conditions: bti-tn-5b1-4; note: in other assays of this panel Not Active means under 50% inhibition at 10 µM
T3 sequence (P05177 whole entry): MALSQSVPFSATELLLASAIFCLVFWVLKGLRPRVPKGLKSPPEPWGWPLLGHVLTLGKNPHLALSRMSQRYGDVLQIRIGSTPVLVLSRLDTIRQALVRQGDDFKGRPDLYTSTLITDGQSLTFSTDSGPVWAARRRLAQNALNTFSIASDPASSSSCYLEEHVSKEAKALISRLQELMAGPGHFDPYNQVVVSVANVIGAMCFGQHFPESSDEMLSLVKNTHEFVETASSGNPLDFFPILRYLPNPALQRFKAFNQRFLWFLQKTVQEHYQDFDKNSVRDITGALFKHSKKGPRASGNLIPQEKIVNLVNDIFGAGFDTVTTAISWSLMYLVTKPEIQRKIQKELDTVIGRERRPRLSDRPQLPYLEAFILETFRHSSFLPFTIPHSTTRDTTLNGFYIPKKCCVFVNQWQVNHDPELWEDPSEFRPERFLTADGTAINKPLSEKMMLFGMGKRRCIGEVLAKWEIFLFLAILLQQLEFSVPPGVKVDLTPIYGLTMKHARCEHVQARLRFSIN

[6] = biological target: T4, Progesterone receptor (Bos taurus, UniProt Q690N0); test: DRUGMATRIX: Progesterone radioligand binding (ligand: [3H] R-5020); assay type: tissue-based, Uterus; conditions: Not Active = under 50% inhibition at 10 µM
T4 sequence (Q690N0 whole entry): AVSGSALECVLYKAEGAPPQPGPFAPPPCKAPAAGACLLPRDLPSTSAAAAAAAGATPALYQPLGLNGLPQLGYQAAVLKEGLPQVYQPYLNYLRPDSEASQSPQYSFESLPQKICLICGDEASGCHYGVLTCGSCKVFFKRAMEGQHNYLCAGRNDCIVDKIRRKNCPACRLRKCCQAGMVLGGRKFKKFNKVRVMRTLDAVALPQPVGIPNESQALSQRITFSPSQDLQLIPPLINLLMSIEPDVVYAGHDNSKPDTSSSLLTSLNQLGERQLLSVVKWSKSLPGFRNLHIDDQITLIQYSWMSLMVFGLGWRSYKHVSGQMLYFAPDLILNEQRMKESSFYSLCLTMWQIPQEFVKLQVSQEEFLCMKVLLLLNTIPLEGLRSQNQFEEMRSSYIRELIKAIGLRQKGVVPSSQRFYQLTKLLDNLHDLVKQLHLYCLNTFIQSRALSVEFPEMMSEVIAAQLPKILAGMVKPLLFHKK

Sequence of Nitric oxide synthase 1 (P29476 whole entry): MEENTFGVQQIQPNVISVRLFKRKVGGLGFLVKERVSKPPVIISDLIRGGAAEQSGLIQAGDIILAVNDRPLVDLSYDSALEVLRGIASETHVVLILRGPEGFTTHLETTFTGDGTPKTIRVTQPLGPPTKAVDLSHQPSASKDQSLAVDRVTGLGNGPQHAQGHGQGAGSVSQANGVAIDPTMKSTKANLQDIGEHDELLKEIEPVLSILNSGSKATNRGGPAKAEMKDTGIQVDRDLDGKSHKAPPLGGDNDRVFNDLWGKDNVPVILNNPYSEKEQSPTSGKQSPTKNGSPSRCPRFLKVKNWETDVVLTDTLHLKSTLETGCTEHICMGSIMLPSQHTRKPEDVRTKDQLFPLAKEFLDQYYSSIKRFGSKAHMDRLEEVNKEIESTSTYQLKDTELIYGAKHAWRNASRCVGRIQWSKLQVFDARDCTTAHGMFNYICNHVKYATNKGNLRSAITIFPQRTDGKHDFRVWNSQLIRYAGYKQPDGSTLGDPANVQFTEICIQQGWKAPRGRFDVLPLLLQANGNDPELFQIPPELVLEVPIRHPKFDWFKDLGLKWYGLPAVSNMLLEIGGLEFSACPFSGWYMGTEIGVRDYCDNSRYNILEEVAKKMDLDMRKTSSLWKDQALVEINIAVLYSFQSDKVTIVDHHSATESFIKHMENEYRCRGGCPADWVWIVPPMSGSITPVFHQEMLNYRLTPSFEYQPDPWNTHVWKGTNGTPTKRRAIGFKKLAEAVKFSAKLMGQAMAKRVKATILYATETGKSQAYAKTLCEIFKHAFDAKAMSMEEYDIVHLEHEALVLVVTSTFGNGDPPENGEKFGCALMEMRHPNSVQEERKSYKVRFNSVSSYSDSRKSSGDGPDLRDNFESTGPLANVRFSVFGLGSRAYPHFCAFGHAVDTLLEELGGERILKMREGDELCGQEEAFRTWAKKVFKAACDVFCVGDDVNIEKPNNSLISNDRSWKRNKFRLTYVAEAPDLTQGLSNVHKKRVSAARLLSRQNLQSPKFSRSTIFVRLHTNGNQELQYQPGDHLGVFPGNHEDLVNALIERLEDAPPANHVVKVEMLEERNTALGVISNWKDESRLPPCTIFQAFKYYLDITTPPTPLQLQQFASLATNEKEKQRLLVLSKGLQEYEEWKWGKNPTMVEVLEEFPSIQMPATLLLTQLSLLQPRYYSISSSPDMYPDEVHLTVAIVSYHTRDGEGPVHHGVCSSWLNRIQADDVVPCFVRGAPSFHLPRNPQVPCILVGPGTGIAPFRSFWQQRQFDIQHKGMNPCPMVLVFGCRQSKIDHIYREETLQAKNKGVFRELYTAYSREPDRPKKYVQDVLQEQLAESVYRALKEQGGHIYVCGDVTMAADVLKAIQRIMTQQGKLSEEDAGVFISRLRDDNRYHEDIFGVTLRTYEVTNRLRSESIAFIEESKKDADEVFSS

CC[C@]1(O)C[C@@H]2CN(CCc3c([nH]c4ccccc34)[C@@](C(=O)OC)(c3cc4c(cc3OC)N(C)[C@H]3[C@@](O)(C(N)=O)[C@H](O)[C@]5(CC)C=CCN6CC[C@]43[C@@H]65)C2)C1 [VINDESINE]
Not Active: IC50 [1] | IC50 [2] | Ki [2] | IC50 [3] | IC50 [4] | IC50 [5] | Ki [5] | IC50 [6]

CCN(C(C)=O)c1cccc(-c2ccnc3c(C#N)cnn23)c1 [ZALEPLON]
Not Active: IC50 [1] | IC50 [2] | Ki [2] | IC50 [3] | IC50 [4] | IC50 [5] | Ki [5] | IC50 [6]

COBALTOUS CHLORIDE
Not Active: IC50 [1] | Ki [1] | IC50 [2] | Ki [2] | IC50 [3] | Ki [3] | IC50 [4] | Ki [4] | IC50 [5] | Ki [5] | IC50 [6] | Ki [6]

COLISTIN
Not Active: IC50 [1] | Ki [1] | IC50 [2] | Ki [2] | IC50 [3] | Ki [3] | IC50 [4] | Ki [4] | IC50 [5] | Ki [5] | IC50 [6] | Ki [6]
